Laboratory results: patent US7785607B2 (priority 2004, dated 2010)
Like-named read-outs stand apart in the source and are kept apart here.

System: IFN-gamma-producing T lymphocytes (PBMC)
Type: cell-based, human
Details: for SFCs/2.5 × 10^5 cells: μg/mL: proteins 2 each, ESAT-6 pool 50, CFP-10 pool 8, both pools 58, PHA 1, PPD 10

Q: What does the source list for phytohemagglutinin [PHA]?
A: Absolute value (spots in control wells subtracted): 237; response scored positive or negative: positive; SFCs/2.5 × 10^5 cells ([…], mean of duplicate wells): 240 SFCs/2.5 × 10^5 cells; Absolute value (spots in control wells subtracted) (sample 1b latent tuberculosis): 236; SFCs/2.5 × 10^5 cells (sample 1b latent tuberculosis, mean of duplicate wells): 240 SFCs/2.5 × 10^5 cells; response scored positive or negative (sample 1e anergic subject): negative; Absolute value (spots in control wells subtracted) (sample 1e anergy): 6; SFCs/2.5 × 10^5 cells (sample 1e anergy): 11 SFCs/2.5 × 10^5 cells; response scored positive or negative (sample 1d healthy control): positive
